From patent US11987570B1, “10-(2-hydroxyethyl)-9-(2-hydroxypyridin-3-yl)-3,4,6,7,9,10-hexahydroacridine-1,8(2H,5H)-dione as an antimicrobial compound” (KING FAISAL UNIVERSITY, priority 2023, dated 2024)

Assays:
Type in all cases: cell-based
Conditions in all cases: after 10, 20, 40 and 60 minutes at all dilutions 1:100, 1:200, 1:400, 1:800
[1] = test system: Escherichia coli; test: Antimicrobial screening by agar dilution, Escherichia coli
Method: (§1) The antibacterial properties of the synthesized compound (10-(2-hydroxyethyl)-9-(2-hydroxypyridin-3-yl)-3,4,6,7,9,10-hexahydroacridine-1,8(2H,5H)-dione) were studied by the method of agar dilution. Test solutions of each compound was prepared in concentration of 1% using dimethylformamide as a solvent then they are diluted in physiological solution to obtain the final experimental dilutions 1:100, 1:200, 1:400, 1:800. The effect of these substances are compared with furacillin in a controllable study. The testing microbes used were gram positive bacteria Staphylococcus aureus, gram negative bacteria Pseudomonas aeruginosa and Escherichia coli and Candida albicans fungus. The experiments used for this survey were meat-pentonlu agar (EPA) for cultivation of bacteria and Saburo environment for the fungus. Each experiment used 1 mL of test solution on each plate […]. Two drops of emulsified with microbes feel were added. All experimental samples were taken from the agar after 10, 20, 40, 60 minutes in the environment on the basis of Patrk planted. The bacteria were cultivated at a temperature of 37° C. for 1 day and the mushroom was kept in a thermostat for 2 hours at a temperature of 28° C. Then results were checked.

[2] = test system: Staphylococcus aureus; test: Antimicrobial screening by agar dilution, Staphylococcus aureus
Method: as §1

[3] = test system: Candida albicans; test: Antimicrobial screening by agar dilution, Candida albicans
Method: as §1

[4] = test system: Pseudomonas aeruginosa; test: Antimicrobial screening by agar dilution, Pseudomonas aeruginosa
Method: as §1

Measured: inhibition activity

O=C1CCCC2=C1C(c1cccnc1O)C1=C(CCCC1=O)N2CCO [10-(2-hydroxyethyl)-9-(2-hydroxypyridin-3-yl)-3,4,6,7,9,10-hexahydroacridine-1,8(2H,5H)-dione]
highest inhibition activity: [1] | [2] | [3] | [4]
